Read-outs that look alike come from different tables or passages of the source.
Key:
[1] = test system: Zymoseptoria tritici; assay: Leaf blotch of wheat (SEPTTR) disease control on wheat seedlings; assay type: in vivo, Zymoseptoria tritici on wheat plants (variety Yuma); conditions: LV activity at 121.5 g/H
Protocol: (§1) Technical grades of materials were dissolved in acetone, which were then mixed with nine volumes of water (H2O) containing 110 ppm Triton X-100. The fungicide solutions were applied onto wheat seedlings using an automated booth sprayer to run-off. All sprayed plants were allowed to air dry prior to further handling. All fungicides were evaluated using the aforementioned method for their activity vs. all target diseases, unless stated otherwise. Wheat leaf blotch and brown rust activity were also evaluated using track spray applications, in which case the fungicides were formulated as EC formulations, containing 0.1% Trycol 5941 in the spray solutions. Wheat plants (variety Yuma) were grown from seed in a greenhouse in 50% mineral soil/50% soil-less Metro mix until the first leaf was fully emerged, with 7-10 seedlings per pot. These plants were inoculated with an aqueous spore suspension of Zymoseptoria tritici either prior to or after fungicide treatments. […] When disease symptoms were fully expressed on the 1st leaves of untreated plants, infection levels were assessed on a scale of 0 to 100 percent disease severity. Percent disease control was calculated using the ratio of disease severity on treated plants relative to untreated plants.

[2] = test system: Puccinia triticina; assay: Wheat brown rust (PUCCRT) disease control on wheat seedlings; assay type: in vivo, Puccinia triticina on wheat plants (variety Yuma); conditions: LV activity at 121.5 g/H
Protocol: as §1, with “plants. […]” for “plants.”

## CCc1cc(OC)ccc1C(c1ccc(OC)cc1OC)[C@H](C)OC(=O)[C@H](C)n1c(=O)oc2c(OC)ccnc2c1=O (stereo partly shown) [Compound 8]
[1]; 24 h, 1 Day Protectant, read-out: SEPTTR 1DP disease control rating
  pest or weed control at 121.5 g/ha: > 80%
[1]; 72 h, 3 Day Curative, read-out: SEPTTR 3DC disease control rating
  pest or weed control at 121.5 g/ha: > 80%
[2]; 24 h, 1 Day Protectant, read-out: PUCCRT 1DP disease control rating
  pest or weed control at 121.5 g/ha: ≤ 80%
[2]; 72 h, 3 Day Curative, read-out: PUCCRT 3DC disease control rating
  pest or weed control at 121.5 g/ha: ≤ 80%

Reference: patent publication US10334852B2, “Pyrido-1,3-oxazine-2,4-dione compounds with fungicidal activity” (Dow AgroSciences LLC, priority 2016, dated 2019)
